One experiment concerns the target Renin receptor (ATP6IP2) (Homo sapiens, UniProt O75787). The experiment in a line: Surface plasmon resonance (Biacore). The note with it: ATP6IP2, SPR. Format: binding. For orientation: In SPR one partner is held on a chip, and binding of the other changes the refractive index at the surface.
In a further experiment the target is Integrin beta-2 (CD18) (Homo sapiens, UniProt P05107). The experiment in a line: Surface plasmon resonance (Biacore). Format: binding. Conditions: CD18, SPR.
In a further experiment the test system is RXF 393. Description: NCI 60 cytotoxicity screening. Format: cell-based. Conditions: Homo sapiens; RXF 393, Renal.
In the next experiment the test system is SK-MEL-5. Description: NCI 60 cytotoxicity screening. In kind it is cell-based. The note with it: Homo sapiens; SK-MEL-5, Melanoma.
The test system of the next experiment is MCF7. The experiment in a line: NCI 60 cytotoxicity screening. Format: cell-based. The note with it: Homo sapiens; MCF7, Breast.
Another experiment relates to HCC-2998. The experiment in a line: NCI 60 cytotoxicity screening. The note with it: Homo sapiens; HCC-2998, Colon. Format: cell-based.
In the next experiment the test system is HCT-116. Description: NCI 60 cytotoxicity screening. Format: cell-based. The note with it: Homo sapiens.
The next experiment has as its system SK-OV-3. Description: NCI 60 cytotoxicity screening. Format: cell-based. Conditions: Homo sapiens; SK-OV-3, Ovarian.
The next experiment deals with HOP-62. Description: NCI 60 cytotoxicity screening. The note with it: Homo sapiens; HOP-62, NSCLC. In kind it is cell-based.
Experiment [1] deals with Nodal. Description: qPCR analysis of Nodal expression. Format: cell-based, human. The note with it: C8161, 10 nM, 8–72 h. As for the experimental part:
For the qPCR analysis of Nodal and Notch expression, total RNA was isolated from cells using the PerfectPure RNA Cell Isolation kit (5Prime) and then reverse-transcribed using 1 μg RNA, RT master mix cocktail and MMLV reverse transcriptase. qPCR was performed on a 7500 Real-Time PCR System (Life Technologies) using manufacturer recommended protocol. TaqMan gene expression human primer/probe sets (Applied Biosystems) utilized were Nodal (Hs00250630_s1) and Notch4 (Hs00270200_m1). Target gene expression was normalized to appropriate house-keeping genes (e.g., RPLP0 or GAPDH). Data was analyzed using Life Technologies Sequence Detection Software.
Background: Real-time PCR tracks product formation cycle by cycle.

Experiment [2] deals with Nodal. The experiment in a line: Western blot of Nodal (ProNodal) protein. In kind it is cell-based, human. Conditions: C8161, 10 nM, 24 h, corrected to β-actin. As for the experimental part:
Cells at 80% confluence were rinsed with PBS, harvested by scrapping into a modified RIPA buffer plus protease inhibitor cocktail using 100 μL buffer per 1 × 10^6 cells. After sonication and centrifugation, the protein concentrations in the supernatants were determined using a BCA assay (Thermo Fisher Scientific). […] Nodal was detected using a mouse monoclonal anti-Nodal antibody (sc-373910; Santa Cruz; 1 μg/ml in 20 mM Tris/150 mM NaCl/0.1% [w/v] Tween 20, pH 7.4 [TBST] plus 5% BSA) followed by an anti-mouse plus horseradish peroxidase (HRP) secondary antibody (NXA931; GE Healthcare; 1 μg/ml in TBST plus 5% BSA) and enhanced chemiluminescence (ECL; GE Healthcare). Smad2 was detected using a rabbit polyclonal anti-Smad2/3 antibody (07-408; Millipore; 1 μg/ml in TBST plus 5% BSA) followed by an anti-rabbit plus HRP secondary antibody (NA934V; GE Healthcare; 1 μg/ml in TBST plus 5% BSA) and ECL. […] To assess relative changes in protein expression, the exposed films were digitized using a ChemiDoc XRS imager (Bio-Rad Laboratories) and the relative amount of protein determined against the untreated control cells normalized to a value of 1.0 using the imager’s Quantity One software package (Bio-Rad Laboratories) and corrected for loading of protein into each lane against the β-actin protein measured in the control lane.
Background: Immunoblotting shows a protein as a band on a membrane.

The structures appear in SMILES notation.

Chain of Integrin beta-2 (CD18) (P05107 23-769): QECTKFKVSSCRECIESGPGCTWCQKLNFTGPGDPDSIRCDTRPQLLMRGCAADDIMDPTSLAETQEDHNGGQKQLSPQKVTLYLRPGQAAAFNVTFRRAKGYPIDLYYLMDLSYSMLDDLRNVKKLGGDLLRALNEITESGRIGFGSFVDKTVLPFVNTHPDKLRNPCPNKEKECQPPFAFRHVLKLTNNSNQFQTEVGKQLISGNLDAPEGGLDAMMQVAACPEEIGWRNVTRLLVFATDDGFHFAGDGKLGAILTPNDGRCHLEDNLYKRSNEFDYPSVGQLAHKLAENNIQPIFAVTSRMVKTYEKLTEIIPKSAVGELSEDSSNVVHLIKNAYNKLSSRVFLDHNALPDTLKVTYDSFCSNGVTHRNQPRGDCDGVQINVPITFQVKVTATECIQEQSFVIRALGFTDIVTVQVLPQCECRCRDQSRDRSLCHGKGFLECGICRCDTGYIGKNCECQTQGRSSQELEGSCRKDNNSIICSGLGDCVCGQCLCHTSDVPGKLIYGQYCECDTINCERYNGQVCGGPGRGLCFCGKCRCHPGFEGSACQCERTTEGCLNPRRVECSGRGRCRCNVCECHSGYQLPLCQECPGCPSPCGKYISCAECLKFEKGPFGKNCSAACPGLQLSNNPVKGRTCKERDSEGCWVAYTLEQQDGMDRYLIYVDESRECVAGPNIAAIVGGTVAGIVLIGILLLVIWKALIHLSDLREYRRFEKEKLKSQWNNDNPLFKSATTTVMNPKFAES
Chain of Renin receptor (ATP6IP2) (O75787 17-350): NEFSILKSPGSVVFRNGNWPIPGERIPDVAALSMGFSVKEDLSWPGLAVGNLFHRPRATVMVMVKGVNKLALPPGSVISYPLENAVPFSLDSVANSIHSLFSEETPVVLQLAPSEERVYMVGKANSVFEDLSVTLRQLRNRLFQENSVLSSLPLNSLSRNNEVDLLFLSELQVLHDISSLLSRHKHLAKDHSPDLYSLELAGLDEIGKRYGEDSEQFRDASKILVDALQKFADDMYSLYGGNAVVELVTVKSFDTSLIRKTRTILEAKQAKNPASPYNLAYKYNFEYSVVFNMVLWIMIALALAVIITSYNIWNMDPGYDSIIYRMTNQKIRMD

For orientation: GI50 means the concentration giving 50% growth inhibition. Usually IC50 stands for the midpoint of a concentration-inhibition curve. Read a high IC50 as weaker potency. For `COc1ccc2[nH]c(-c3cccc(F)c3)cc(=O)c2c1O` [CVM-1125], the “Dissociation (kd)” value at Renin receptor (ATP6IP2) is 0.021 s⁻¹; on Integrin beta-2 (CD18), 1.08e-05 s⁻¹. Further, the kon at Renin receptor (ATP6IP2) (read-out: Association (ka)) worked out at 122000 M⁻¹ s⁻¹; at Integrin beta-2 (CD18) (read-out: Association (ka)), 14.4 M⁻¹ s⁻¹. Also, the Kd at Renin receptor (ATP6IP2) (read-out: KD (kd/ka)) was 173 nM; at Integrin beta-2 (CD18) (read-out: KD (kd/ka)) it was 748 nM. Besides, the concentration for 50% growth inhibition (GI50) in the experiment on RXF 393 came out at 17.5 nM; in the experiment with SK-MEL-5, 29.8 nM; in the experiment with MCF7, 29.9 nM; in the experiment on HCC-2998 it was 32.1 nM; in the experiment with HCT-116 (HCT-116, Colon) it was 33 nM; with SK-OV-3 it was 35.6 nM. In the experiment on HOP-62, this molecule showed a GI50 of 49.6 nM. Besides, half-maximal inhibition in the experiment with HCT-116 (HCT-116, refers to Supplementary Table S2) (IC50) was put at 33 nM.
On to `COc1ccc2[nH]c(-c3cccc(F)c3)cc(=O)c2c1OP(=O)(O)O` [CVM-1118], for which the “expression of Nodal (mRNA)” value in the experiment on Nodal [1] is given as “decreased”. The “reduction of Nodal protein levels” value with Nodal [2] amounted to 63%.
